According to the NIST ThermoML archive (doi:10.1016/j.jct.2012.09.017):
Numbers after ± are expanded uncertainties.

Assay: activity coefficient (dimensionless); of the first substance listed, at infinite dilution; xn = mol fraction of the nth substance listed
Conditions: 318.15 K; 101 kPa; Liquid; Chromatography; x1 = 0

COCCOC [1,2-dimethoxyethane] + CCCC[N+]1(C)CCCC1.N#C[B-](C#N)(C#N)C#N and CCC(C)=O [butanone] + CCCC[N+]1(C)CCCC1.N#C[B-](C#N)(C#N)C#N are within error of each other in activity coefficient: 0.506 ± 0.031 for the first, 0.546 ± 0.031 for the second.

Going from Cc1cccc(C)c1 [1,3-dimethylbenzene] + CCCC[N+]1(C)CCCC1.N#C[B-](C#N)(C#N)C#N to c1ccccc1 [benzene] + CCCC[N+]1(C)CCCC1.N#C[B-](C#N)(C#N)C#N, the activity coefficient falls from 1.63 ± 0.08 to 0.833 ± 0.039.

Compared with FC(F)(F)C(Cl)Br (stereo not given) [1-bromo-1-chloro-2,2,2-trifluoroethane] + CCCC[N+]1(C)CCCC1.N#C[B-](C#N)(C#N)C#N, COC(C)(C)C [2-methoxy-2-methylpropane] + CCCC[N+]1(C)CCCC1.N#C[B-](C#N)(C#N)C#N is higher in activity coefficient: 0.842 ± 0.039 for the first, 2.39 ± 0.12 for the second.

CC(C)=O [acetone] + CCCC[N+]1(C)CCCC1.N#C[B-](C#N)(C#N)C#N and CC#N [acetonitrile] + CCCC[N+]1(C)CCCC1.N#C[B-](C#N)(C#N)C#N are within error of each other in activity coefficient: 0.445 ± 0.03 for the first, 0.425 ± 0.029 for the second.

Same assay, conditions: 323.15 K; 101 kPa; Liquid; Chromatography; x1 = 0

COCCOC [1,2-dimethoxyethane] + CCCC[N+]1(C)CCCC1.N#C[B-](C#N)(C#N)C#N and CCC(C)=O [butanone] + CCCC[N+]1(C)CCCC1.N#C[B-](C#N)(C#N)C#N are within error of each other in activity coefficient: 0.524 ± 0.031 for the first, 0.551 ± 0.031 for the second.

First: Cc1cccc(C)c1 [1,3-dimethylbenzene] + CCCC[N+]1(C)CCCC1.N#C[B-](C#N)(C#N)C#N
Second: c1ccccc1 [benzene] + CCCC[N+]1(C)CCCC1.N#C[B-](C#N)(C#N)C#N
The activity coefficient of the first is higher: 1.64 ± 0.08 for the first, 0.841 ± 0.039 for the second.

Going from FC(F)(F)C(Cl)Br (stereo not given) [1-bromo-1-chloro-2,2,2-trifluoroethane] + CCCC[N+]1(C)CCCC1.N#C[B-](C#N)(C#N)C#N to COC(C)(C)C [2-methoxy-2-methylpropane] + CCCC[N+]1(C)CCCC1.N#C[B-](C#N)(C#N)C#N, the activity coefficient rises from 0.869 ± 0.04 to 2.41 ± 0.12.

CC(C)=O [acetone] + CCCC[N+]1(C)CCCC1.N#C[B-](C#N)(C#N)C#N and CC#N [acetonitrile] + CCCC[N+]1(C)CCCC1.N#C[B-](C#N)(C#N)C#N are within error of each other in activity coefficient: 0.45 ± 0.03 for the first, 0.426 ± 0.029 for the second.

Same assay, conditions: 333.15 K; 101 kPa; Liquid; Chromatography; x1 = 0

COCCOC [1,2-dimethoxyethane] + CCCC[N+]1(C)CCCC1.N#C[B-](C#N)(C#N)C#N and CCC(C)=O [butanone] + CCCC[N+]1(C)CCCC1.N#C[B-](C#N)(C#N)C#N are within error of each other in activity coefficient: 0.56 ± 0.032 for the first, 0.564 ± 0.032 for the second.

Compared with COCCOC [1,2-dimethoxyethane] + CCCC[N+]1(C)CCCC1.O=C1O[B-]2(OC1=O)OC(=O)C(=O)O2, COC(C)(C)C [2-methoxy-2-methylpropane] + CCCC[N+]1(C)CCCC1.N#C[B-](C#N)(C#N)C#N is higher in activity coefficient: 1.16 ± 0.05 for the first, 2.45 ± 0.13 for the second.

First: Cc1cccc(C)c1 [1,3-dimethylbenzene] + CCCC[N+]1(C)CCCC1.N#C[B-](C#N)(C#N)C#N
Second: c1ccccc1 [benzene] + CCCC[N+]1(C)CCCC1.N#C[B-](C#N)(C#N)C#N
The activity coefficient of the first is higher: 1.66 ± 0.08 for the first, 0.858 ± 0.039 for the second.

First: Cc1cccc(C)c1 [1,3-dimethylbenzene] + CCCC[N+]1(C)CCCC1.O=C1O[B-]2(OC1=O)OC(=O)C(=O)O2
Second: c1ccccc1 [benzene] + CCCC[N+]1(C)CCCC1.O=C1O[B-]2(OC1=O)OC(=O)C(=O)O2
The activity coefficient of the first is higher: 3.96 ± 0.2 for the first, 1.65 ± 0.08 for the second.

First: FC(F)(F)C(Cl)Br (stereo not given) [1-bromo-1-chloro-2,2,2-trifluoroethane] + CCCC[N+]1(C)CCCC1.N#C[B-](C#N)(C#N)C#N
Second: COC(C)(C)C [2-methoxy-2-methylpropane] + CCCC[N+]1(C)CCCC1.O=C1O[B-]2(OC1=O)OC(=O)C(=O)O2
The activity coefficient of the first is lower: 0.923 ± 0.041 for the first, 6.34 ± 0.33 for the second.

Going from FC(F)(F)C(Cl)Br (stereo not given) [1-bromo-1-chloro-2,2,2-trifluoroethane] + CCCC[N+]1(C)CCCC1.O=C1O[B-]2(OC1=O)OC(=O)C(=O)O2 to CC(C)=O [acetone] + CCCC[N+]1(C)CCCC1.N#C[B-](C#N)(C#N)C#N, the activity coefficient falls from 1.61 ± 0.08 to 0.461 ± 0.03.

Compared with CC(C)=O [acetone] + CCCC[N+]1(C)CCCC1.O=C1O[B-]2(OC1=O)OC(=O)C(=O)O2, CC#N [acetonitrile] + CCCC[N+]1(C)CCCC1.N#C[B-](C#N)(C#N)C#N is lower in activity coefficient: 0.762 ± 0.037 for the first, 0.427 ± 0.029 for the second.

Compound CC#N [acetonitrile] + CCCC[N+]1(C)CCCC1.O=C1O[B-]2(OC1=O)OC(=O)C(=O)O2 has an activity coefficient of 0.509 ± 0.031.

Same assay, conditions: 343.15 K; 101 kPa; Liquid; Chromatography; x1 = 0

COCCOC [1,2-dimethoxyethane] + CCCC[N+]1(C)CCCC1.N#C[B-](C#N)(C#N)C#N and CCC(C)=O [butanone] + CCCC[N+]1(C)CCCC1.N#C[B-](C#N)(C#N)C#N are within error of each other in activity coefficient: 0.594 ± 0.032 for the first, 0.575 ± 0.032 for the second.

First: COCCOC [1,2-dimethoxyethane] + CCCC[N+]1(C)CCCC1.O=C1O[B-]2(OC1=O)OC(=O)C(=O)O2
Second: COC(C)(C)C [2-methoxy-2-methylpropane] + CCCC[N+]1(C)CCCC1.N#C[B-](C#N)(C#N)C#N
The activity coefficient of the first is lower: 1.2 ± 0.06 for the first, 2.48 ± 0.13 for the second.

Going from Cc1cccc(C)c1 [1,3-dimethylbenzene] + CCCC[N+]1(C)CCCC1.N#C[B-](C#N)(C#N)C#N to c1ccccc1 [benzene] + CCCC[N+]1(C)CCCC1.N#C[B-](C#N)(C#N)C#N, the activity coefficient falls from 1.69 ± 0.08 to 0.874 ± 0.04.

Going from Cc1cccc(C)c1 [1,3-dimethylbenzene] + CCCC[N+]1(C)CCCC1.O=C1O[B-]2(OC1=O)OC(=O)C(=O)O2 to c1ccccc1 [benzene] + CCCC[N+]1(C)CCCC1.O=C1O[B-]2(OC1=O)OC(=O)C(=O)O2, the activity coefficient falls from 3.84 ± 0.2 to 1.63 ± 0.08.

First: FC(F)(F)C(Cl)Br (stereo not given) [1-bromo-1-chloro-2,2,2-trifluoroethane] + CCCC[N+]1(C)CCCC1.N#C[B-](C#N)(C#N)C#N
Second: COC(C)(C)C [2-methoxy-2-methylpropane] + CCCC[N+]1(C)CCCC1.O=C1O[B-]2(OC1=O)OC(=O)C(=O)O2
The activity coefficient of the first is lower: 0.977 ± 0.043 for the first, 6.06 ± 0.31 for the second.

First: FC(F)(F)C(Cl)Br (stereo not given) [1-bromo-1-chloro-2,2,2-trifluoroethane] + CCCC[N+]1(C)CCCC1.O=C1O[B-]2(OC1=O)OC(=O)C(=O)O2
Second: CC(C)=O [acetone] + CCCC[N+]1(C)CCCC1.N#C[B-](C#N)(C#N)C#N
The activity coefficient of the first is higher: 1.66 ± 0.08 for the first, 0.471 ± 0.03 for the second.

First: CC(C)=O [acetone] + CCCC[N+]1(C)CCCC1.O=C1O[B-]2(OC1=O)OC(=O)C(=O)O2
Second: CC#N [acetonitrile] + CCCC[N+]1(C)CCCC1.N#C[B-](C#N)(C#N)C#N
The activity coefficient of the first is higher: 0.767 ± 0.037 for the first, 0.429 ± 0.029 for the second.

Work on CC#N [acetonitrile] + CCCC[N+]1(C)CCCC1.O=C1O[B-]2(OC1=O)OC(=O)C(=O)O2 yielded an activity coefficient of 0.512 ± 0.031.

Same assay, conditions: 353.15 K; 101 kPa; Liquid; Chromatography; x1 = 0

COCCOC [1,2-dimethoxyethane] + CCCC[N+]1(C)CCCC1.N#C[B-](C#N)(C#N)C#N and CCC(C)=O [butanone] + CCCC[N+]1(C)CCCC1.N#C[B-](C#N)(C#N)C#N are within error of each other in activity coefficient: 0.628 ± 0.033 for the first, 0.588 ± 0.032 for the second.

First: COCCOC [1,2-dimethoxyethane] + CCCC[N+]1(C)CCCC1.O=C1O[B-]2(OC1=O)OC(=O)C(=O)O2
Second: COC(C)(C)C [2-methoxy-2-methylpropane] + CCCC[N+]1(C)CCCC1.N#C[B-](C#N)(C#N)C#N
The activity coefficient of the first is lower: 1.23 ± 0.06 for the first, 2.52 ± 0.13 for the second.

First: Cc1cccc(C)c1 [1,3-dimethylbenzene] + CCCC[N+]1(C)CCCC1.N#C[B-](C#N)(C#N)C#N
Second: c1ccccc1 [benzene] + CCCC[N+]1(C)CCCC1.N#C[B-](C#N)(C#N)C#N
The activity coefficient of the first is higher: 1.72 ± 0.09 for the first, 0.891 ± 0.04 for the second.

First: Cc1cccc(C)c1 [1,3-dimethylbenzene] + CCCC[N+]1(C)CCCC1.O=C1O[B-]2(OC1=O)OC(=O)C(=O)O2
Second: c1ccccc1 [benzene] + CCCC[N+]1(C)CCCC1.O=C1O[B-]2(OC1=O)OC(=O)C(=O)O2
The activity coefficient of the first is higher: 3.73 ± 0.19 for the first, 1.61 ± 0.08 for the second.

Compared with FC(F)(F)C(Cl)Br (stereo not given) [1-bromo-1-chloro-2,2,2-trifluoroethane] + CCCC[N+]1(C)CCCC1.N#C[B-](C#N)(C#N)C#N, COC(C)(C)C [2-methoxy-2-methylpropane] + CCCC[N+]1(C)CCCC1.O=C1O[B-]2(OC1=O)OC(=O)C(=O)O2 is higher in activity coefficient: 1.03 ± 0.05 for the first, 5.87 ± 0.3 for the second.

Compared with FC(F)(F)C(Cl)Br (stereo not given) [1-bromo-1-chloro-2,2,2-trifluoroethane] + CCCC[N+]1(C)CCCC1.O=C1O[B-]2(OC1=O)OC(=O)C(=O)O2, CC(C)=O [acetone] + CCCC[N+]1(C)CCCC1.N#C[B-](C#N)(C#N)C#N is lower in activity coefficient: 1.72 ± 0.09 for the first, 0.481 ± 0.03 for the second.

Going from CC(C)=O [acetone] + CCCC[N+]1(C)CCCC1.O=C1O[B-]2(OC1=O)OC(=O)C(=O)O2 to CC#N [acetonitrile] + CCCC[N+]1(C)CCCC1.N#C[B-](C#N)(C#N)C#N, the activity coefficient falls from 0.773 ± 0.037 to 0.43 ± 0.029.

With CC#N [acetonitrile] + CCCC[N+]1(C)CCCC1.O=C1O[B-]2(OC1=O)OC(=O)C(=O)O2 the activity coefficient was 0.514 ± 0.031.

Same assay, conditions: 363.15 K; 101 kPa; Liquid; Chromatography; x1 = 0

Going from COCCOC [1,2-dimethoxyethane] + CCCC[N+]1(C)CCCC1.O=C1O[B-]2(OC1=O)OC(=O)C(=O)O2 to COC(C)(C)C [2-methoxy-2-methylpropane] + CCCC[N+]1(C)CCCC1.O=C1O[B-]2(OC1=O)OC(=O)C(=O)O2, the activity coefficient rises from 1.26 ± 0.06 to 5.7 ± 0.29.

First: Cc1cccc(C)c1 [1,3-dimethylbenzene] + CCCC[N+]1(C)CCCC1.O=C1O[B-]2(OC1=O)OC(=O)C(=O)O2
Second: c1ccccc1 [benzene] + CCCC[N+]1(C)CCCC1.O=C1O[B-]2(OC1=O)OC(=O)C(=O)O2
The activity coefficient of the first is higher: 3.64 ± 0.19 for the first, 1.6 ± 0.08 for the second.

Compared with FC(F)(F)C(Cl)Br (stereo not given) [1-bromo-1-chloro-2,2,2-trifluoroethane] + CCCC[N+]1(C)CCCC1.O=C1O[B-]2(OC1=O)OC(=O)C(=O)O2, CC(C)=O [acetone] + CCCC[N+]1(C)CCCC1.O=C1O[B-]2(OC1=O)OC(=O)C(=O)O2 is lower in activity coefficient: 1.77 ± 0.09 for the first, 0.778 ± 0.037 for the second.

With CC#N [acetonitrile] + CCCC[N+]1(C)CCCC1.O=C1O[B-]2(OC1=O)OC(=O)C(=O)O2 the activity coefficient was 0.516 ± 0.031.

Same assay, conditions: 373.15 K; 101 kPa; Liquid; Chromatography; x1 = 0

Compared with COCCOC [1,2-dimethoxyethane] + CCCC[N+]1(C)CCCC1.O=C1O[B-]2(OC1=O)OC(=O)C(=O)O2, COC(C)(C)C [2-methoxy-2-methylpropane] + CCCC[N+]1(C)CCCC1.O=C1O[B-]2(OC1=O)OC(=O)C(=O)O2 is higher in activity coefficient: 1.29 ± 0.06 for the first, 5.57 ± 0.29 for the second.

First: Cc1cccc(C)c1 [1,3-dimethylbenzene] + CCCC[N+]1(C)CCCC1.O=C1O[B-]2(OC1=O)OC(=O)C(=O)O2
Second: c1ccccc1 [benzene] + CCCC[N+]1(C)CCCC1.O=C1O[B-]2(OC1=O)OC(=O)C(=O)O2
The activity coefficient of the first is higher: 3.55 ± 0.18 for the first, 1.59 ± 0.08 for the second.

Going from FC(F)(F)C(Cl)Br (stereo not given) [1-bromo-1-chloro-2,2,2-trifluoroethane] + CCCC[N+]1(C)CCCC1.O=C1O[B-]2(OC1=O)OC(=O)C(=O)O2 to CC(C)=O [acetone] + CCCC[N+]1(C)CCCC1.O=C1O[B-]2(OC1=O)OC(=O)C(=O)O2, the activity coefficient falls from 1.82 ± 0.09 to 0.784 ± 0.037.

In the case of CC#N [acetonitrile] + CCCC[N+]1(C)CCCC1.O=C1O[B-]2(OC1=O)OC(=O)C(=O)O2, the activity coefficient is reported as 0.517 ± 0.031.
